Converted amounts (≈) assume the structure as drawn. Read-outs that look alike come from different tables or passages of the source. Marks after values point to notes of the source that are not given here.
Assays:
[1] = system: CMDR P. aeruginosa (FADDI-PA067); experiment: Antibiogram of CMDR P. aeruginosa; assay type: cell-based, Pseudomonas aeruginosa; conditions: for Susceptibility: interpreted by CLSI resistant breakpoints
[2] = system: CMDR A. baumannii (FADDI-AB156); experiment: Antibiogram of CMDR A. baumannii (MIC); assay type: cell-based, Acinetobacter baumannii; conditions: for Susceptibility: interpreted by CLSI resistant breakpoints
[3] = system: Acinetobacter baumannii (A. baumannii, ATCC 19606); experiment: MBC determination (in vitro antimicrobial experiment, CFU counting); assay type: cell-based; conditions: Acinetobacter baumannii, ATCC19606; compound alone; A. baumannii (wild-type)
Protocol: (§1) Freeze-dried cultures of Escherichia coli (E. coli, ATCC 25922), Klebsiella pneumoniae (K. pneumoniae, ATCC 13883), Pseudomonas aeruginosa (P. aeruginosa, ATCC 47085), Acinetobacter baumannii (A. baumannii, ATCC 19606), colistin and multidrug-resistant (CMDR) A. baumannii (FADDI-AB156), and CMDR P. aeruginosa (FADDI-PA067) were grown aerobically and maintained by passage at ambient temperature on horse blood agar (10% v/v defibrinated horse blood, 4.4% w/v Oxoid Blood Agar Base No. 2). Overnight cultures were made from transferring a colony (ca. half a loop) from the agar plates to culture tubes containing sterilized Luria-Bertani broth (LB, 1% w/v Bacto™ Tryptone, 1% w/v NaCl, 0.5% w/v Oxoid Yeast Extract) (20 mL). Bacterial cultures were incubated overnight at 37° C. with aeration and without agitation, with the exception of the two P. aeruginosa strains (ATCC 47085 and FADDI-PA067) which were cultured at 37° C. with aeration and agitation (150 rpm). On the next day, for E. coli, K. pneumonia, P. aeruginosa (ATCC 47085), and CMDR P. aeruginosa (FADDI-PA067), small aliquots (i.e., 0.5-3 mL) were taken from the culture tubes, further diluted with LB (20 mL), and incubated for 3-4 h at 37° C. with aeration before use. All bacterial cultures were cultured without agitation, with the exception of P. aeruginosa ATCC 47085 and FADDI-PA067 which were cultured with shaking at 150 rpm. For A. baumannii, an aliquot of 0.5 mL was taken from the overnight culture tube, further diluted with LB (200 mL), and incubated overnight at 37° C. with aeration before use.
(§2) The 96-well plate was then incubated at 37° C. for 1.5 or 3 h. For each well, microbial solution was diluted with saline (0.9% NaCl solution) using an appropriate dilution factor and placed on a LB agar plate (LB broth containing 15 g/L Oxoid Blood Agar Base No. 2). For E. coli, K. pneumoniae, and A. Baumannii (ATCC 19606 and FADDI-AB156), the agar plates were incubated overnight at room temperature, and then at 37° C. with aeration for 2 h. For P. Aeruginosa (ATCC 47085 and FADDI-PA067), the agar plates were incubated at 37° C. with aeration. The number of colony-forming units (CFU) was counted and expressed as CFU/mL. Positive controls consisting of cells without any treatment were used. […] A minimum of two independent experiments (biological replicates) of the assay were conducted and three technical replicates were used in each experiment. Data is expressed as mean±standard deviation (SD) and analysed using student's t-test.

[4] = system: Pseudomonas aeruginosa (P. aeruginosa, ATCC 47085); experiment: as above; assay type: cell-based; conditions: Pseudomonas aeruginosa, ATCC47085; compound alone; P. aeruginosa (wild-type)
Protocol: as §1, §2

[5] = system: CMDR P. aeruginosa (FADDI-PA067); experiment: as above; assay type: cell-based, Pseudomonas aeruginosa; conditions: Pseudomonas aeruginosa, compound alone
Protocol: as §1, §2

[6] = system: CMDR A. baumannii (FADDI-AB156); experiment: as above; assay type: cell-based, Acinetobacter baumannii; conditions: Acinetobacter baumannii, compound alone
Protocol: as §1, §2

[7] = system: Acinetobacter baumannii (A. baumannii, ATCC 19606); experiment: S16-antibiotic co-administration, synergy by Bliss Independence and HSA models; assay type: cell-based; conditions: for MBC in combination: S16 and antibiotic co-administered, each at MBC50
Protocol: as §2
(§3) The Bliss Independence and HSA models were used to calculate drug synergism. […] Biotechnol. 31, 160-165 (2013). With the Bliss Independence model, synergism was calculated using the formula, BICAB=A+B−AB (1), where A and B are the effects of the two drugs in isolation and BICAB is the combined effect of the two drugs as predicted by the Bliss Independence model. […] In the HSA model, if CAB is greater than the greater of A and B, CAB>max(A, B), synergy is observed. The quantitative effect of the compounds when administered alone (i.e., A and B) or in combination (i.e., CAB) was defined as the fractional reduction of the population, R=1−CFUt/CFU0, where CFUt is the CFU/mL measured after treatment, and CFU0 is the CFU/mL measured before treatment.

[8] = system: Pseudomonas aeruginosa (P. aeruginosa, ATCC 47085); experiment: as above; assay type: cell-based; conditions: for MBC in combination: S16 and antibiotic co-administered, each at MBC50
Protocol: as §2, §3

[9] = system: CMDR P. aeruginosa (FADDI-PA067); experiment: as above; assay type: cell-based, Pseudomonas aeruginosa; conditions: for MBC in combination: S16 and antibiotic co-administered, each at MBC50, 3 h
Protocol: as §2, §3

[10] = system: CMDR A. baumannii (FADDI-AB156); experiment: as above; assay type: cell-based, Acinetobacter baumannii; conditions: for MBC in combination: S16 and antibiotic co-administered, each at MBC50, 3 h
Protocol: as §2, §3

[11] = CMDR A. baumannii (FADDI-AB156)
[12] = Acinetobacter baumannii, CMDR A. baumannii (FADDI-AB156), read-out: MIC
[13] = antibiotic in combination with S16, 3 h, Bliss Independence model
[14] = antibiotic in combination with S16, 3 h, Highest Single Agent model
[15] = co-administered S16 (at MBC50) and antibiotic, antibiotic concentration giving at least 2-log reduction in CFU/mL, 3 h

Molecule: CC1(C)S[C@@H]2[C@H](NC(=O)[C@H](C(=O)O)c3ccsc3)C(=O)N2[C@H]1C(=O)O [Ticarcillin]
- Susceptibility [1]: Resistant

Molecule: C[C@H]1[C@H](NC(=O)/C(=N\OC(C)(C)C(=O)O)c2csc(N)n2)C(=O)N1S(=O)(=O)O [Aztreonam]
- Susceptibility [1]: Resistant

Molecule: CCn1cc(C(=O)O)c(=O)c2ccc(C)nc21 [Nalidixic Acid]
- MIC ([2]; Acinetobacter baumannii): ≥ 138 µM
- Susceptibility [2, 11]: Resistant

Molecule: O=C(O)c1cn(C2CC2)c2cc(N3CCNCC3)c(F)cc2c1=O [Ciprofloxacin]
- MIC [2, 12]: ≥ 12.1 µM

Molecule: NC[C@H]1O[C@H](O[C@H]2[C@H](O)[C@@H](O[C@H]3O[C@H](CO)[C@@H](O)[C@H](N)[C@H]3O)[C@H](N)C[C@@H]2N)[C@H](N)C[C@@H]1O [Tob, tobramycin]
- MBC [3]: 15.2 µM (≈ 7.11 µg/mL)
- MBC [4]: 3.9 µM (≈ 1.82 µg/mL)
- MBC [5]: 239 µM (≈ 112 µg/mL)
- MBC [6]: > 2190 µM
- Interaction with S16 as evaluated by the Bliss Independence and HSA models (in words) ([7]; A. baumannii wild-type, 3 h time point): non-synergistic
- Antimicrobial activity on co-administration with S16 compared to compounds alone (log change in CFU/mL) ([7]; A. baumannii wild-type, all compounds at MBC50, t=3 h): antagonism
- MBC in combination ([7]; A. baumannii, 3 h): 7.6 µM
- Synergistic? (Yes/No) Bliss* ([7]; antibiotic in combination with S16, A. baumannii, 3 h, Bliss Independence model): No
- Synergistic? (Yes/No) HAS* ([7]; antibiotic in combination with S16, A. baumannii, 3 h, Highest Single Agent model): No
- Interaction with S16 as evaluated by the Bliss Independence and HSA models (in words) ([8]; P. aeruginosa wild-type, 3 h time point): non-synergistic
- Antimicrobial activity on co-administration with S16 compared to compounds alone (log change in CFU/mL) ([8]; P. aeruginosa wild-type, all compounds at MBC50, t=3 h): antagonism
- MBC in combination ([8]; P. aeruginosa, 3 h): 1.9 µM
- Synergistic? (Yes/No) Bliss* ([8]; antibiotic in combination with S16, P. aeruginosa, 3 h, Bliss Independence model): No
- Synergistic? (Yes/No) HAS* ([8]; antibiotic in combination with S16, P. aeruginosa, 3 h, Highest Single Agent model): No
- Interaction with S16 as evaluated by the Bliss Independence and HSA models (in words) ([9]; 3 h time point): non-synergistic
- MBC in combination [9]: 119.7 µM
- Antimicrobial activity on co-administration with S16 compared to compounds alone (log change in CFU/mL) ([9]; all compounds at MBC50, t=3 h): antagonistic
- Synergistic? (Yes/No) Bliss* [9, 13]: No
- Synergistic? (Yes/No) HAS* [9, 14]: No
- Interaction with S16 as evaluated by the Bliss Independence and HSA models (in words) ([10]; 3 h time point): non-synergistic
- MBC in combination [10]: 2190.3 µM
- Antimicrobial activity on co-administration with S16 compared to compounds alone (log change in CFU/mL) ([10]; all compounds at MBC50, t=3 h): antagonistic
- Synergistic? (Yes/No) Bliss* [10, 13]: No
- Synergistic? (Yes/No) HAS* [10, 14]: No
- Susceptibility [1]: Resistant
- MIC [2, 12]: > 2190 µM
- Susceptibility [2, 11]: Resistant

Molecule: C[C@@H](O)[C@H]1C(=O)N2C(C(=O)O)=C(S[C@@H]3CN[C@H](C(=O)N(C)C)C3)[C@H](C)[C@H]12 [Meropenem]
- MIC [2, 12]: ≥ 41.7 µM
- Susceptibility [2, 11]: Resistant

Molecule: CCn1cc(C(=O)O)c(=O)c2cc(F)c(N3CCNCC3)cc21 [Norfloxacin]
- MIC [2, 12]: ≥ 50.1 µM
- Susceptibility [2, 11]: Resistant

Molecule: COc1cc(Cc2cnc(N)nc2N)cc(OC)c1OC [Trimethoprim]
- MIC [2, 12]: ≥ 55.1 µM
- Susceptibility [2, 11]: Resistant

Molecule: CO/N=C(\C(=O)N[C@@H]1C(=O)N2C(C(=O)O)=C(CSc3nc(=O)c(=O)[nH]n3C)CS[C@H]12)c1csc(N)n1 [Ceftriaxone]
- MIC [2, 12]: ≥ 115 µM
- Susceptibility [2, 11]: Resistant

Molecule: CCN1CCN(C(=O)N[C@@H](C(=O)N[C@@H]2C(=O)N3[C@@H]2SC(C)(C)[C@@H]3C(=O)O)c2ccccc2)C(=O)C1=O [Piperacillin]
- Susceptibility [1]: Resistant

Molecule: O=C1CN(/N=C/c2ccc([N+](=O)[O-])o2)C(=O)N1 [Nitrofurantoin]
- MIC [2, 12]: ≥ 2150 µM

Molecule: CO/N=C(\C(=O)N[C@@H]1C(=O)N2C(C(=O)[O-])=C(C[N+]3(C)CCCC3)CS[C@H]12)c1csc(N)n1 [Cefepime]
- MIC [2, 12]: ≥ 133 µM
- Susceptibility [2, 11]: Resistant

Molecule: CO[C@@]1(NC(=O)Cc2cccs2)C(=O)N2C(C(=O)O)=C(COC(N)=O)CS[C@@H]21 [Cefoxitin]
- MIC [2, 12]: ≥ 150 µM
- Susceptibility [2, 11]: Resistant

Molecule: Colistin Sulfate
- Susceptibility, concentration in parentheses [1]: > 110.8 µM
- Susceptibility [1]: Resistant
- Susceptibility [2, 11]: Resistant
- MIC ([2]; CMDR A. baumannii (FADDI-AB156), read-out: MIC): 13.8 µM

Molecule: Cc1nnc(SCC2=C(C(=O)O)N3C(=O)[C@@H](NC(=O)Cn4cnnn4)[C@H]3SC2)s1 [Cefazolin]
- MIC [2, 12]: ≥ 141 µM
- Susceptibility [2, 11]: Resistant

Molecule: NCC[C@H](O)C(=O)N[C@@H]1C[C@H](N)[C@@H](O[C@H]2O[C@H](CN)[C@@H](O)[C@H](O)[C@H]2O)[C@H](O)[C@H]1O[C@H]1O[C@H](CO)[C@@H](O)[C@H](N)[C@H]1O [Amikacin]
- MIC [2, 12]: ≥ 109 µM
- Susceptibility [2, 11]: Resistant

Molecule: CC(C)(O/N=C(\C(=O)N[C@@H]1C(=O)N2C(C(=O)[O-])=C(C[n+]3ccccc3)CS[C@H]12)c1csc(N)n1)C(=O)O [Ceftazidime]
- Susceptibility [1]: Resistant
- MIC [2, 12]: ≥ 117 µM
- Susceptibility [2, 11]: Resistant

Molecule: C[C@H]1c2cccc(O)c2C(=O)C2=C(O)[C@]3(O)C(=O)C(C(N)=O)=C(O)[C@@H](N(C)C)[C@@H]3[C@@H](O)[C@@H]21 [Dox, doxycycline]
- MBC [4]: 50.7 µM (≈ 22.5 µg/mL)
- MBC [5]: 630 µM (≈ 280 µg/mL)
- MBC in combination ([8]; P. aeruginosa, 3 h): 25.3 µM
- Fold reduction of MBC ([9]; MBCeff with S16 versus MBC alone): 4.2 fold
- MBC in combination [9]: 295.3 µM
- MBC in combination, MBCeff [9, 15]: 148.2^a μM

Molecule: C[C@@H](O)[C@H]1C(=O)N2C(C(=O)O)=C(SCCN=CN)C[C@H]12 [Imi, imipenem]
- MBC [3]: 37.8 µM (≈ 11.3 µg/mL)
- MBC [6]: 355 µM (≈ 106 µg/mL)
- MBC in combination ([7]; A. baumannii, 3 h): 19.0 µM
- Fold reduction of MBC ([10]; MBCeff in combination versus MBC alone): 4.0 fold
- MBC in combination [10]: 177.4 µM
- MBC in combination, MBCeff [10, 15]: 88.2^a μM
- MIC [2, 12]: 355 µM (≈ 106 µg/mL)

From patent US11154589B2, “Antimicrobial composition combinations comprising star shaped peptide polymers” (The University of Melbourne, priority 2016, dated 2021)
